Values joined by “and” are separate entries in the source; they are usually repeats but may differ in a detail not shown here. Identical values can stand only once. Toxic doses and inconclusive results are not listed. How the source made its calls: active means survival T/C of 150% or more; inactive means T/C below 125% in these data.
System: P388 leukemia ip, CD2F1 mice, survival T/C
Test: NCI In Vivo Anticancer Drug Screen. Data for tumor model P388 Leukemia (intraperitoneal) in CD2F1 (CDF1) mice
Conditions: endpoint: median survival time, higher = longer survival
How it was run: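 Mice carrying the transplanted tumor received test compound or vehicle. Survival was recorded in each group, and the value is the treated-group measurement divided by that of the vehicle-treated control group.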

[1] = dose: 25.0 mg/kg/injection, schedule: Q01DX005 (ip), vehicle: Klucel (hydroxypropylcellulose) (HPC)
[2] = dose: 50.0 mg/kg/injection, schedule: Q01DX005 (ip), vehicle: Klucel (hydroxypropylcellulose) (HPC)
[3] = dose: 100.0 mg/kg/injection, schedule: Q01DX005 (ip), vehicle: Klucel (hydroxypropylcellulose) (HPC)
[4] = dose: 50.0 mg/kg/injection, schedule: Q01DX009 (ip), vehicle: Klucel (hydroxypropylcellulose) (HPC)
[5] = dose: 100.0 mg/kg/injection, schedule: Q01DX009 (ip), vehicle: Klucel (hydroxypropylcellulose) (HPC)
[6] = dose: 200.0 mg/kg/injection, schedule: Q01DX009 (ip), vehicle: Klucel (hydroxypropylcellulose) (HPC)
[7] = dose: 50.0 mg/kg/injection, schedule: Q01DX005 (ip), vehicle: saline with Tween-80
[8] = dose: 100.0 mg/kg/injection, schedule: Q01DX005 (ip), vehicle: saline with Tween-80
[9] = dose: 60.0 mg/kg/injection, schedule: Q01DX005 (ip), vehicle: saline with Tween-80
[10] = dose: 120.0 mg/kg/injection, schedule: Q01DX005 (ip), vehicle: saline with Tween-80
[11] = dose: 240.0 mg/kg/injection, schedule: Q01DX005 (ip), vehicle: saline with Tween-80
[12] = dose: 200.0 mg/kg/injection, schedule: Q01DX005 (ip), vehicle: Klucel (hydroxypropylcellulose) (HPC)
[13] = dose: 60.0 mg/kg/injection, schedule: Q01DX005 (ip), vehicle: Klucel (hydroxypropylcellulose) (HPC)
[14] = dose: 120.0 mg/kg/injection, schedule: Q01DX005 (ip), vehicle: Klucel (hydroxypropylcellulose) (HPC)
[15] = dose: 240.0 mg/kg/injection, schedule: Q01DX005 (ip), vehicle: Klucel (hydroxypropylcellulose) (HPC)
[16] = dose: 12.5 mg/kg/injection, schedule: Q01DX009 (ip), vehicle: other
[17] = dose: 25.0 mg/kg/injection, schedule: Q01DX009 (ip), vehicle: other

Measured: T/C

CC1(C)[C@H](C(=O)O)N2C(=O)[C@@H](NC(=O)C(c3ccccc3)c3ccccc3)[C@H]2S1=O (stereo not given in full)
inactive: [1] 101 % of control | [2] 99 % of control | [3] 101 % of control

CC1OC(OC2C(OC3C[C@@]4(C)C(C[C@H](O)[C@H]5[C@H](C6(C)CCC(C(C)(C)O)O6)CCC54C)[C@]4(C)CC[C@@H](O)C(C)(C)C34)OC(CO)C(O)C2O)C(O)C(O)C1O (stereo not given in full) (tested in a mixture with another compound)
inactive: [4] 101 % of control | [5] 101 % of control | [6] 94 % of control

CN1CC[C@@H](c2ccccc2)[C@@H](O)C1
inactive: [7] 97 % of control | [8] 100 % of control

C#CC1OC12CCC1C3CC=C4CC(O)CCC4(C)C3CCC12 (stereo not given)
inactive: dose: 50.0 mg/kg/injection, schedule: Q01DX009 (ip), vehicle: suspension in saline 93 % of control | dose: 100.0 mg/kg/injection, schedule: Q01DX009 (ip), vehicle: suspension in saline 94 % of control | dose: 200.0 mg/kg/injection, schedule: Q01DX009 (ip), vehicle: suspension in saline 87 % of control

CN(C)N=Nc1cccc(Cl)c1
inactive: dose: 6.25 mg/kg/injection, schedule: Q01DX009 (ip), vehicle: Klucel (hydroxypropylcellulose) (HPC) 95 % of control | dose: 12.5 mg/kg/injection, schedule: Q01DX009 (ip), vehicle: Klucel (hydroxypropylcellulose) (HPC) 105 % of control | dose: 12.5 mg/kg/injection, schedule: Q01DX009 (ip), vehicle: saline with Tween-80 100 % of control | dose: 25.0 mg/kg/injection, schedule: Q01DX009 (ip), vehicle: Klucel (hydroxypropylcellulose) (HPC) 98 % of control | dose: 25.0 mg/kg/injection, schedule: Q01DX009 (ip), vehicle: saline + alcohol 107 % of control | dose: 25.0 mg/kg/injection, schedule: Q01DX009 (ip), vehicle: saline with Tween-80 98 % of control | dose: 25.0 mg/kg/injection, schedule: Q01DX009 (ip), vehicle: saline 91 % of control | [4] 100 % of control | dose: 50.0 mg/kg/injection, schedule: Q01DX009 (ip), vehicle: saline + alcohol 120 % of control | dose: 50.0 mg/kg/injection, schedule: Q01DX009 (ip), vehicle: saline with Tween-80 107 % of control | dose: 50.0 mg/kg/injection, schedule: Q01DX009 (ip), vehicle: saline 99 % of control | dose: 100.0 mg/kg/injection, schedule: Q01DX009 (ip), vehicle: saline with Tween-80 105 % of control | dose: 100.0 mg/kg/injection, schedule: Q01DX009 (ip), vehicle: saline 97 % of control | dose: 200.0 mg/kg/injection, schedule: Q01DX009 (ip), vehicle: saline 100 % of control

COc1ccc(Cn2nnc(C(N)=O)c2NC=O)cc1
inactive: dose: 100.0 mg/kg/injection, schedule: Q01DX001 (ip), vehicle: Klucel (hydroxypropylcellulose) (HPC) 95 % of control | dose: 200.0 mg/kg/injection, schedule: Q01DX001 (ip), vehicle: Klucel (hydroxypropylcellulose) (HPC) 100 % of control | dose: 400.0 mg/kg/injection, schedule: Q01DX001 (ip), vehicle: Klucel (hydroxypropylcellulose) (HPC) 100 % of control

COC(=O)c1cccc2c1Oc1c(cccc1C(=O)OC)S2
inactive: dose: 100.0 mg/kg/injection, schedule: Q04DX002 (ip), vehicle: Klucel (hydroxypropylcellulose) (HPC) 109 % of control | dose: 200.0 mg/kg/injection, schedule: Q04DX002 (ip), vehicle: Klucel (hydroxypropylcellulose) (HPC) 115 % of control | dose: 400.0 mg/kg/injection, schedule: Q04DX002 (ip), vehicle: Klucel (hydroxypropylcellulose) (HPC) 117 % of control

O=CNc1c2ccccc2c(NC=O)c2ccccc12
inactive: [7] 92 % of control | [8] 88 % of control | dose: 200.0 mg/kg/injection, schedule: Q01DX005 (ip), vehicle: saline with Tween-80 101 % of control

O=C(Nc1c(Cl)cccc1Cl)OC1CCCCCCCCCCC1
inactive: [4] 100 % of control | [5] 92 % of control | [6] 86 % of control

Cc1cc2cc3c(c(C(=O)O)c2o1)C(=O)c1ccc2ccccc2c1C3
inactive: [9] 97 % of control | [10] 101 % of control | [11] 94 % of control

CCNCCNc1cc(O)c2c(c1O)C(=O)c1ccccc1C2=O
inactive: [1] 101 % of control and 102 % of control | [2] 110 % of control and 111 % of control | [3] 111 % of control and 112 % of control | [12] 122 % of control

CC(=NCCCCN=C(C)c1cc(C)ccc1O)c1cc(C)ccc1O
inactive: [2] 98 % of control | [3] 100 % of control | [12] 103 % of control

Cc1ccc(C(C)(C)C)cc1Br
inactive: dose: 100.0 mg/kg/injection, schedule: Q01DX001 (ip), vehicle: other 95 % of control | dose: 200.0 mg/kg/injection, schedule: Q01DX001 (ip), vehicle: other 100 % of control | dose: 400.0 mg/kg/injection, schedule: Q01DX001 (ip), vehicle: other 88 % of control

CC1Cn2c(nnc2-c2ccccc2O)S1 (stereo not given)
inactive: [9] 96 % of control | [10] 100 % of control | [11] 101 % of control

CCCCNc1c(C(=O)OCC)cnc2c1cnn2CC
inactive: dose: 100.0 mg/kg/injection, schedule: Q04DX002 (ip), vehicle: saline with Tween-80 102 % of control | dose: 200.0 mg/kg/injection, schedule: Q04DX002 (ip), vehicle: saline with Tween-80 102 % of control | dose: 400.0 mg/kg/injection, schedule: Q04DX002 (ip), vehicle: saline with Tween-80 90 % of control

C=CC(=C)C1(O)c2ccccc2C(=O)N1C (stereo not given)
inactive: [13] 106 % of control | [14] 109 % of control

CC(NS(=O)(=O)N1CCOC1=O)c1ccccc1 (stereo not given)
inactive: [13] 104 % of control | [14] 107 % of control | [15] 104 % of control

Cc1ncc(CO)c(/C=N/NC(=O)c2ccncc2)c1O
inactive: [13] 102 % of control | [14] 102 % of control | [15] 101 % of control

CCOc1cccc2c1C(=O)c1c(OCC)c3c(c(OCC)c1C2=O)CC(O)(C(C)=O)CC3O (stereo not given)
inactive: dose: 1.56 mg/kg/injection, schedule: Q01DX009 (ip), vehicle: other 99 % of control | dose: 3.13 mg/kg/injection, schedule: Q01DX009 (ip), vehicle: other 102 % of control | dose: 6.25 mg/kg/injection, schedule: Q01DX009 (ip), vehicle: other 93 % of control | [16] 96 % of control | [17] 90 % of control

CCNCC1COc2cccc(OCC)c2O1 (stereo not given)
inactive: dose: 25.0 mg/kg/injection, schedule: Q04DX002 (ip), vehicle: saline 104 % of control | dose: 50.0 mg/kg/injection, schedule: Q04DX002 (ip), vehicle: saline 101 % of control | dose: 100.0 mg/kg/injection, schedule: Q04DX002 (ip), vehicle: saline 99 % of control and 108 % of control

CSc1cccc(NC(=S)NN/C(=N/S(=O)(=O)c2ccccc2)N2CCCC2)c1
inactive: [4] 102 % of control | [5] 101 % of control | [6] 99 % of control

Cc1cc(=O)n2c(nc3ccccc32)o1
inactive: [13] 104 % of control | [14] 104 % of control | [15] 99 % of control

CC(=O)OCC1OC(OC(C)=O)C(NC(=O)CNC(=O)OCc2ccccc2)C(OC(C)=O)C1OC(C)=O (stereo not given)
inactive: [16] 107 % of control | [17] 100 % of control | dose: 50.0 mg/kg/injection, schedule: Q01DX009 (ip), vehicle: other 91 % of control | dose: 100.0 mg/kg/injection, schedule: Q01DX009 (ip), vehicle: other 89 % of control | dose: 200.0 mg/kg/injection, schedule: Q01DX009 (ip), vehicle: other 98 % of control

CSc1nc2ccc(CN3C(=O)c4ccccc4C3=O)cc2s1
inactive: [4] 88 % of control | [5] 98 % of control | [6] 91 % of control

CC(=O)O[C@H]1CC[C@@]2(C)C(CC[C@]3(C)C2CC=C2[C@@H]4CC(C)(C)CC[C@]4(C(=O)NCCN(C)C)CCC23C)C1(C)C (stereo not given in full)
inactive: dose: 7.5 mg/kg/injection, schedule: Q01DX005 (ip), vehicle: saline with Tween-80 99 % of control | dose: 15.0 mg/kg/injection, schedule: Q01DX005 (ip), vehicle: saline with Tween-80 100 % of control | dose: 30.0 mg/kg/injection, schedule: Q01DX005 (ip), vehicle: saline with Tween-80 99 % of control | [9] 103 % of control
